Assay results from US6369069B1 (Aventis Pharma Deutschland GmbH, priority 1998, dated 2002).

The compounds below were run on Na^+-dependent Cl^−/HCO3^− exchanger (NCBE) (assay: Inhibition of the Na+-dependent Cl−/HCO3− exchanger (NCBE) in human endothelial cells (pHi recovery, BCECF fluorescence, FLIPR)). Settings: 10 μM.
Format: cell-based
Protocol: Inhibition of the Na^+-dependent Cl^−/HCO3^− exchanger (NCBE) in human endothelial cells
Human endothelial cells (ECV-304) were detached form culture flasks with the aid of trypsin/EDTA buffer (0.05/0.02% in phosphate buffer) and, after centrifugation (100 g, 5 min), taken up in a buffered saline solution (mmol/l: 115 NaCl, 20 NH4Cl, 5 KCl, 1 CaCl2, 1 MgSO4, 20 N-(2-hydroxyethyl)-piperazine-N[…]-2-ethanesulfonic acid (HEPES), 5 glucose and 1 g/l of bovine serum albumin; pH 7.4). This cell suspension was incubated at 37 °C. for 20 min with 5 μM BCECF acetoxymethyl ester. The cells were then washed and resuspended in a sodium- and bicarbonate-free buffer solution (mmol/l: 5 HEPES, 133.8 choline chloride, 4.7 KCl, 1.25 MgCl2, 0.97 K2HPO4, 0.23 KH2PO4, 5 glucose; pH 7.4).
For the subsequent fluorescence measurement in the FLIPR (Fluorescent Imaging Plate Reader), 100 μl of this cell suspension in each case containing 20,000 cells were added by pipette per well of a 96-well microtiter plate and this microtiter plate was centrifuged (100 g, 5 min). In the FLIPR, 100 μl of buffer solution in each case were then removed from a further prepared microtiter plate and added by pipette to each of the 96 wells of the measuring plate. In this case, for a 100% control, i.e. a recovery of the intracellular pH (pHi) by means of the NCBE, a bicarbonate- and sodium-containing buffer solution (mmol/l: 5 HEPES, 93.8 NaCl, 40 NaHCO3, 4.7 KCl, 1.25 CaCl2, 1.25 MgCl2, 0.97 Na2HPO4, 0.23 NaH2PO4, 5 glucose; pH 7.4) which contained 50 μM HOE 642 was used. For a 0% control, i.e. no pHi recovery at all, a bicarbonate-free, sodium-containing buffer solution (mmol/l: 5 HEPES, 133.8 NaCl, 4.7 KCl, 1.25 CaCl2, 1.25 MgCl2, 0.97 Na2HPO4, 0.23 NaH2PO4, 5 glucose; pH 7.4) to which 50 μM HOE 642 were also added was employed. The compounds according to the invention were added in various concentrations of the sodium- and bicarbonate-containing solution. After addition of the buffer solutions to the dye-loaded acidified cells situated in the measuring plate, the increase in the fluorescence intensity which corresponded to an increase in the pHi was determined in each well of the microtiter plate.
The kinetics were in this case recorded at 35° C. over a period of 2 minutes. The increase in the fluorescence intensities for different concentrations of the compounds according to the invention was related to the two controls and from this the inhibitory action of the substances was determined.

| SMILES | Residual activity % of the NCBE at 10 μM [%] |
| --- | --- |
| CCCC(=O)N(CCO)Cc1ccc(-c2ccccc2S(=O)(=O)NC#N)cc1 [Example 2] | 78.1 |
| CCCC(=O)N(Cc1ccc(OC)cc1)Cc1ccc(-c2ccccc2S(=O)(=O)NC#N)cc1 [Example 3] | 80.9 |
| CCCC(=O)N(Cc1ccc(-c2ccccc2S(=O)(=O)NC#N)cc1)C1CCCCC1 [Example 6] | 84.5 |
| N#CNS(=O)(=O)c1ccccc1-c1ccc(CN(Cc2ccccc2)C(=O)CCC2CCCCC2)cc1 [Example 7] | 33.0 |
| N#CNS(=O)(=O)c1ccccc1-c1ccc(CN(CCO)C(=O)CCC2CCCCC2)cc1 [Example 8] | 86.7 |
| COc1ccc(CN(Cc2ccc(-c3ccccc3S(=O)(=O)NC#N)cc2)C(=O)CCC2CCCCC2)cc1 [Example 9] | 86.6 |
| N#CNS(=O)(=O)c1ccccc1-c1ccc(CN(Cc2ccc(Cl)cc2)C(=O)CCC2CCCCC2)cc1 [Example 10] | 84.9 |
| N#CNS(=O)(=O)c1ccccc1-c1ccc(CN(C(=O)CCC2CCCCC2)C2CCCCC2)cc1 [Example 12] | 92.9 |
| N#CNS(=O)(=O)c1ccccc1-c1ccc(CN(Cc2ccccc2)C(=O)C2CCCCC2)cc1 [Example 13] | 74.7 |
| N#CNS(=O)(=O)c1ccccc1-c1ccc(CN(CCO)C(=O)C2CCCCC2)cc1 [Example 14] | 88.7 |
| COc1ccc(CN(Cc2ccc(-c3ccccc3S(=O)(=O)NC#N)cc2)C(=O)C2CCCCC2)cc1 [Example 15] | 67.6 |
| N#CNS(=O)(=O)c1ccccc1-c1ccc(CN(Cc2ccc(Cl)cc2)C(=O)C2CCCCC2)cc1 [Example 16] | 56.4 |
| COc1cccc(CC(=O)N(Cc2ccccc2)Cc2ccc(-c3ccccc3S(=O)(=O)NC#N)cc2)c1 [Example 19] | 25.9 |
| COc1cccc(CC(=O)N(CCO)Cc2ccc(-c3ccccc3S(=O)(=O)NC#N)cc2)c1 [Example 20] | 37.1 |
| COc1ccc(CN(Cc2ccc(-c3ccccc3S(=O)(=O)NC#N)cc2)C(=O)Cc2cccc(OC)c2)cc1 [Example 21] | 52.3 |
| COc1cccc(CC(=O)N(Cc2ccc(-c3ccccc3S(=O)(=O)NC#N)cc2)C2CCCCC2)c1 [Example 24] | 92.1 |
| N#CNS(=O)(=O)c1ccccc1-c1ccc(CN(Cc2ccccc2)C(=O)Cc2cccs2)cc1 [Example 25] | 16.6 |
| N#CNS(=O)(=O)c1ccccc1-c1ccc(CN(CCO)C(=O)Cc2cccs2)cc1 [Example 26] | 47.6 |
| COc1ccc(CN(Cc2ccc(-c3ccccc3S(=O)(=O)NC#N)cc2)C(=O)Cc2cccs2)cc1 [Example 27] | 35.5 |
| N#CNS(=O)(=O)c1ccccc1-c1ccc(CN(Cc2ccc(Cl)cc2)C(=O)Cc2cccs2)cc1 [Example 28] | 95.2 |
| N#CNS(=O)(=O)c1ccccc1-c1ccc(CN(C(=O)Cc2cccs2)C2CCCCC2)cc1 [Example 30] | 95.2 |
| CC(C)(C)c1ccc(C(=O)N(Cc2ccccc2)Cc2ccc(-c3ccccc3S(=O)(=O)NC#N)cc2)cc1 [Example 31] | 52.2 |

| SMILES | Residual activity % of the NCBE at 10 μM [%] |
| --- | --- |
| CC(C)(C)c1ccc(C(=O)N(CCO)Cc2ccc(-c3ccccc3S(=O)(=O)NC#N)cc2)cc1 [Example 32] | 68.0 |
| COc1ccc(CN(Cc2ccc(-c3ccccc3S(=O)(=O)NC#N)cc2)C(=O)c2ccc(C(C)(C)C)cc2)cc1 [Example 33] | 67.2 |
| N#CNS(=O)(=O)c1ccccc1-c1ccc(CN(Cc2ccccc2)C(=O)c2ccccc2F)cc1 [Example 37] | 52.0 |
| N#CNS(=O)(=O)c1ccccc1-c1ccc(CN(CCO)C(=O)c2ccccc2F)cc1 [Example 38] | 66.7 |
| COc1ccc(CN(Cc2ccc(-c3ccccc3S(=O)(=O)NC#N)cc2)C(=O)c2ccccc2F)cc1 [Example 39] | 51.3 |
| C=CCOC(=O)N(Cc1ccccc1)Cc1ccc(-c2ccccc2S(=O)(=O)NC#N)cc1 [Example 43] | 41.6 |
| C=CCOC(=O)N(CCO)Cc1ccc(-c2ccccc2S(=O)(=O)NC#N)cc1 [Example 44] | 82.6 |
| C=CCOC(=O)N(Cc1ccc(OC)cc1)Cc1ccc(-c2ccccc2S(=O)(=O)NC#N)cc1 [Example 45] | 80.1 |
| C=CCOC(=O)N(Cc1ccc(Cl)cc1)Cc1ccc(-c2ccccc2S(=O)(=O)NC#N)cc1 [Example 46] | 52.2 |
| COc1cc(C(=O)N(Cc2ccccc2)Cc2ccc(-c3ccccc3S(=O)(=O)NC#N)cc2)cc(OC)c1OC [Example 49] | 75.8 |
| COc1cc(C(=O)N(Cc2ccc(Cl)cc2)Cc2ccc(-c3ccccc3S(=O)(=O)NC#N)cc2)cc(OC)c1OC [Example 52] | 59.9 |
| N#CNS(=O)(=O)c1ccccc1-c1ccc(CN(Cc2ccccc2)C(=O)c2ccccc2Cl)cc1 [Example 55] | 29.3 |
| N#CNS(=O)(=O)c1ccccc1-c1ccc(CN(CCO)C(=O)c2ccccc2Cl)cc1 [Example 56] | 69.0 |
| COc1ccc(CN(Cc2ccc(-c3ccccc3S(=O)(=O)NC#N)cc2)C(=O)c2ccccc2Cl)cc1 [Example 57] | 82.1 |
| N#CNS(=O)(=O)c1ccccc1-c1ccc(CN(Cc2ccc(Cl)cc2)C(=O)c2ccccc2Cl)cc1 [Example 58] | 59.4 |
| N#CNS(=O)(=O)c1ccccc1-c1ccc(CN(Cc2ccccc2)C(=O)c2ccccc2)cc1 [Example 61] | 56.6 |
| CC(=O)N(Cc1ccc(Cl)cc1)Cc1ccc(-c2ccccc2S(=O)(=O)NC#N)cc1 [Example 62] | 94.5 |
| C/C=C/C(=O)N(Cc1ccc(OC)cc1)Cc1ccc(-c2ccccc2S(=O)(=O)NC#N)cc1 [Example 64] | 88.0 |
| CCCCC(=O)N(Cc1ccc(Cl)cc1)Cc1ccc(-c2ccccc2S(=O)(=O)NC#N)cc1 [Example 65] | 80.0 |
| N#CNS(=O)(=O)c1ccccc1-c1ccc(CN(Cc2ccc(Cl)cc2)C(=O)CCc2ccccc2)cc1 [Example 66] | 83.1 |
| Cc1ccc(C(=O)N(CCO)Cc2ccc(-c3ccccc3S(=O)(=O)NC#N)cc2)cc1 [Example 68] | 94.4 |
| COc1ccc(CN(Cc2ccc(-c3ccccc3S(=O)(=O)NC#N)cc2)C(C)=O)cc1 [Example 69] | 95.4 |
